The values below come from patent US11135237B2, “Lipophosphonoxins of second generation, and their use” (USTAV ORGANICKE CHEMIE A BIOCHEMIE AV CR, V.V.I., priority 2016, dated 2021).

One series deals with Bacillus subtilis. As to the kind of experiment: MIC, microdilution method, reference strains. To be noted: read after 24/48 hours of incubation at 37° C. It counts as cell-based. How it is done:
(§1) Antibacterial activity was measured using a standard microdilution method, showing the minimum inhibitory concentration (MIC) of the test sample which results in inhibition of bacterial growth. Disposable microtiter plates were used for the tests. Samples are dissolved in the brain-heart infusion broth (HiMedia Laboraties Pvt. Ltd., Czech Republic), and Mueller Hinton broth (HiMedia Laboraties, see above) at a final concentration ranging from 200 μg/ml to 1.5625 μg/ml. Plates were inoculated with a standard amount of test bacteria-inoculum density in the hole corresponds to 10^5-6 CFU/ml (colony forming units/ml). MIC values are read after 24/48 hours of incubation at 37° C. as the minimum inhibitory concentration of the test substance at which the growth of bacteria is inhibited. Minimal bactericidal concentration (MBC) is defined as the minimum concentration of the sample needed to achieve irreversible inhibition, therefore killing the bacteria after a defined time of incubation. The MBC was determined by inoculation method. 10 μl from the wells in a microplate with a defined concentration of test substance is taken with an applicator, and inoculated onto the surface of blood agar (Trios, Czech Republic) and Sabouraud agar (Trios, CR). The MBC was determined as the lowest concentration that inhibited visible growth of the bacteria used. Standard reference bacterial strains (Escherichia coli CCM 3954, Pseudomonas aeruginosa CCM 3955, Enterococcus faecalis CCM 4224, Staphylococcus aureus CCM 4223) were obtained from the Czech Collection of Microorganisms (CCM) at […] University in Brno. Streptococcus agalactiae, Bacillus subtilis were obtained from the University Hospital Olomouc. The tested microorganisms were maintained in cryobanks (ITEST plus, Czech Republic) at -80° C.

Series [1] concerns Enterococcus faecalis CCM 4224. As to the kind of experiment: MIC, microdilution method, reference strains. It counts as cell-based. To be noted: CCM4224, read after 24/48 hours of incubation at 37° C. As to the method: as §1
Series [2] relates to Escherichia coli CCM 3954. As to the kind of experiment: MIC, microdilution method, reference strains. It counts as cell-based. Particulars: CCM3954, read after 24/48 hours of incubation at 37° C. As to the method: as §1
Series [3] concerns Pseudomonas aeruginosa CCM 3955. As to the kind of experiment: MIC, microdilution method, reference strains. The series is classed as cell-based. Particulars: CCM3955, read after 24/48 hours of incubation at 37° C. How it is done: as §1
Series [4] concerns Staphylococcus aureus CCM 4223. As to the kind of experiment: MIC, microdilution method, reference strains. The series is classed as cell-based. Particulars: CCM4223, read after 24/48 hours of incubation at 37° C. How it is done:
as §1

The next series has as its system Streptococcus agalactiae. As to the kind of experiment: MIC, microdilution method, reference strains. The series is classed as cell-based. Particulars: read after 24/48 hours of incubation at 37° C. As to the method: as §1
Series [5] deals with Acinetobacter baumanii A3-08. As to the kind of experiment: MIC, microdilution method. Particulars: Acinetobacter baumannii, A308; read after 24/48 hours of incubation at 37° C. It counts as cell-based. As to the method:
(§2) Antibacterial activity was measured using a standard microdilution method, showing the minimum inhibitory concentration (MIC) of the test sample which results in inhibition of bacterial growth. Disposable microtiter plates were used for the tests. Samples are dissolved in the brain-heart infusion broth (HiMedia Laboraties Pvt. Ltd., Czech Republic), and Mueller Hinton broth (HiMedia Laboraties, see above) at a final concentration ranging from 200 μg/ml to 1.5625 μg/ml. Plates were inoculated with a standard amount of test bacteria—inoculum density in the hole corresponds to 10^5-6 CFU/ml (colony forming units/ml). MIC values are read after 24/48 hours of incubation at 37° C. as the minimum inhibitory concentration of the test substance at which the growth of bacteria is inhibited. Minimal bactericidal concentration (MBC) is defined as the minimum concentration of the sample needed to achieve irreversible inhibition, therefore killing the bacteria after a defined time of incubation. The MBC was determined by inoculation method. 10 μl from the wells in a microplate with a defined concentration of test substance is taken with an applicator, and inoculated onto the surface of blood agar (Trios, Czech Republic) and Sabouraud agar (Trios, CR). The MBC was determined as the lowest concentration that inhibited visible growth of the bacteria used.

Series [6] has as its system Burkholderia multivorans ATCC BAA-247. As to the kind of experiment: MIC, microdilution method. The series is classed as cell-based. Particulars: ATCCBAA247, read after 24/48 hours of incubation at 37° C. How it is done: as §2
Series [7] deals with Salmonella Enteritidis S2-25. As to the kind of experiment: MIC, microdilution method. The series is classed as cell-based. Particulars: Salmonella enterica, read after 24/48 hours of incubation at 37° C. How it is done:
as §2

For series [8], the system named is Stenotrophomonas matophilia S2-23. As to the kind of experiment: MIC, microdilution method. It counts as cell-based. Particulars: S223, read after 24/48 hours of incubation at 37° C. How it is done: as §2
The test system of a further series is E. coli 16702. As to the kind of experiment: MIC, microdilution method, resistant strains. The series is classed as cell-based. Particulars: Escherichia coli, resistant strain, clinical isolate. How it is done: as §2
The subject of the next series is E. faecium VanA 419ana. As to the kind of experiment: MIC, microdilution method, resistant strains. It counts as cell-based. Particulars: Enterococcus faecium, VANA419ANA; vancomycin-resistant strain, clinical isolate. As to the method:
as §2

The test system of the next series is P. aeruginosa 16575. As to the kind of experiment: MIC, microdilution method, resistant strains. It counts as cell-based. To be noted: Pseudomonas aeruginosa, resistant strain, clinical isolate. How it is done: as §2
For a further series, the system named is S. aureus MRSA 4591. As to the kind of experiment: MIC, microdilution method, resistant strains. The series is classed as cell-based. To be noted: Staphylococcus aureus, methicillin-resistant strain, clinical isolate. How it is done:
as §2

Another series concerns S. epidermidis 8700B. As to the kind of experiment: MIC, microdilution method, resistant strains. To be noted: Staphylococcus epidermidis, methicilin-resistant strain, clinical isolate. It counts as cell-based. As to the method:
as §2

Another series deals with S. haemolyticus 16568. As to the kind of experiment: MIC, microdilution method, resistant strains. The series is classed as cell-based. To be noted: Staphylococcus haemolyticus, fluoroquinolone-resistant strain, clinical isolate. How it is done: as §2
A further series deals with rabbits. As to the kind of experiment: OECD404 test for skin irritation in rabbits. The series is classed as in vivo.
The subject of the next series is mice. As to the kind of experiment: Maximum tolerated dose in mice, oral administration. It counts as in vivo. How it is done: Maximum tolerated dose in mice was very high, for the compound of Example 3 and oral administration the maximum tolerated dose was 1500 mg/kg of bodyweight.

Molecules are shown by their SMILES. ≈ marks a conversion by molar mass, not a printed value.

For `CCCCCCCCCCCCCCOP(=O)(CCN(CCCN)CCCN)OC[C@H]1O[C@@H](n2ccc(=O)[nH]c2=O)C(O)C1O` (stereo partly shown) [Example 3, Tetradecyl-uridine-5′-yl-2-N-bis (3-aminopropyl)-2-aminoethyl phosphonate], the MIC in the series with Bacillus subtilis was determined as 0.78 µg/mL (≈ 1.18 µM); in series [1] it was 25 µg/mL (≈ 37.8 µM); in [2], 6.25 µg/mL (≈ 9.44 µM); in [3], 0.78 µg/mL (≈ 1.18 µM); in series [4], 6.25 µg/mL (≈ 9.44 µM); against Streptococcus agalactiae it was 3.12 µg/mL (≈ 4.72 µM). In addition, the MIC in [5] worked out at 25 µg/mL (≈ 37.8 µM); in series [6], 200 µg/mL (≈ 302 µM); in series [7], 6.25 µg/mL (≈ 9.44 µM); in [8], 50 µg/mL (≈ 75.5 µM); in the series on E. coli 16702, 3.12 µg/mL (≈ 4.72 µM); against E. faecium VanA 419ana it was 100 µg/mL (≈ 151 µM). The MIC was determined as 1.56 µg/mL (≈ 2.36 µM) in the series with P. aeruginosa 16575, 6.25 µg/mL (≈ 9.44 µM) against S. aureus MRSA 4591, 1.56 µg/mL (≈ 2.36 µM) against S. epidermidis 8700B and 1.56 µg/mL (≈ 2.36 µM) in the series with S. haemolyticus 16568. Moreover, in the series on rabbits, the skin irritation result is given as “not an irritant”. Moreover, in the series on mice, the maximum tolerated dose is given as 1500 mg/kg of bodyweight.

In the case of `CCCCCCCCCCCCCCOP(=O)(CCN(CCCNC(=N)N)CCCNC(=N)N)OC[C@H]1O[C@@H](n2ccc(=O)[nH]c2=O)C(O)C1O` (stereo partly shown) [Example 9], the MIC came out at 1.56 µg/mL (≈ 2.09 µM) with Bacillus subtilis; 12.5 µg/mL (≈ 16.8 µM) in series [1]; 3.12 µg/mL (≈ 4.19 µM) in series [2]; 3.12 µg/mL (≈ 4.19 µM) in series [3]; 6.25 µg/mL (≈ 8.38 µM) in [4]; 3.12 µg/mL (≈ 4.19 µM) against Streptococcus agalactiae. Moreover, the MIC in series [5] stood at 12.5 µg/mL (≈ 16.8 µM); in series [6], 100 µg/mL (≈ 134 µM); in series [7], 3.12 µg/mL (≈ 4.19 µM); in series [8] it was 12.5 µg/mL (≈ 16.8 µM); with E. coli 16702, 3.12 µg/mL (≈ 4.19 µM); against E. faecium VanA 419ana, 50 µg/mL (≈ 67 µM). Also, the MIC was 6.25 µg/mL (≈ 8.38 µM) with P. aeruginosa 16575, 6.25 µg/mL (≈ 8.38 µM) with S. aureus MRSA 4591, 3.12 µg/mL (≈ 4.19 µM) with S. epidermidis 8700B and 3.12 µg/mL (≈ 4.19 µM) in the series on S. haemolyticus 16568.
